From ChEMBL document CHEMBL1201862, “PubChem BioAssay data set” (2004)
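Growth conditions: 96-well plates. Treatment: test compound, 48 hours, 5 concentrations. Analysis: linear interpolation between bracketing concentrations; unreached endpoints set to highest concentration. GI50 = concentration required for 50% inhibition of growth.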 Activity calls are given as the source filed them. Cut-off read from the data, not from the text of the source: active = GI50 up to about 1.1 µM and inactive = higher.

Key:
Assay in all cases: NCI-60 cell line screen, 48 h
Malme-3M = test system: Malme-3M
UACC-257 = test system: UACC-257
KM12 = test system: KM12
786-0 = test system: 786-0
SR = test system: SR
HL-60 = test system: HL-60
SF-295 = test system: SF-295
NCI-H522 = test system: NCI-H522
NCI/ADR-RES = test system: NCI/ADR-RES
RXF 393 = test system: RXF 393
LOX IMVI = test system: LOX IMVI
OVCAR-3 = test system: OVCAR-3
SF-539 = test system: SF-539
HOP-92 = test system: HOP-92
OVCAR-4 = test system: OVCAR-4
SNB-19 = test system: SNB-19
A549 = test system: A549
M14 = test system: M14
SNB-75 = test system: SNB-75

Measured: GI50

COc1cc(/N=N/c2cccc(S(N)(=O)=O)c2)c2ccccc2c1N
inactive: Malme-3M 1.7 µM | UACC-257 1.54 µM | KM12 12.9 µM | 786-0 13.4 µM | SR 11.3 µM | HL-60 5.2 µM | SF-295 10.5 µM | NCI-H522 12.1 µM | NCI/ADR-RES 22 µM | RXF 393 15.7 µM | LOX IMVI 3.4 µM | OVCAR-3 4.86 µM | SF-539 3.05 µM | HOP-92 17.3 µM | OVCAR-4 13.4 µM | SNB-19 14.6 µM | A549 14 µM | M14 1.91 µM | SNB-75 1.98 µM

NC(=S)SC1=NC(=O)C2(NN1)c1ccccc1-c1ccccc12
inactive: Malme-3M > 10 µM | UACC-257 > 10 µM | KM12 > 10 µM | 786-0 > 10 µM | SR > 10 µM | HL-60 > 10 µM | SF-295 > 10 µM | NCI-H522 4.27 µM | NCI/ADR-RES 6.84 µM | RXF 393 > 10 µM | LOX IMVI > 10 µM | SF-539 > 10 µM | HOP-92 > 10 µM | OVCAR-4 > 10 µM | SNB-19 > 10 µM | A549 > 10 µM | M14 > 10 µM | SNB-75 > 10 µM

O=C(CSc1nc2ccc(I)cc2c(=O)n1Cc1ccccc1)Nc1ccc(Br)cc1
inactive: Malme-3M 16.6 µM | KM12 78.7 µM | 786-0 58.6 µM | SR 11.3 µM | HL-60 > 100 µM | SF-295 35.6 µM | NCI-H522 46.7 µM | NCI/ADR-RES 51.9 µM | RXF 393 43.9 µM | LOX IMVI > 100 µM | OVCAR-3 63 µM | SF-539 2.32 µM | HOP-92 60.3 µM | OVCAR-4 34.7 µM | SNB-19 68.1 µM | A549 > 100 µM | M14 56.5 µM | SNB-75 13.8 µM

O=C1NNC2(C(=O)N1)c1ccccc1-c1ccccc12
inactive: Malme-3M > 10 µM | UACC-257 > 10 µM | KM12 > 10 µM | 786-0 > 10 µM | SR > 10 µM | HL-60 > 10 µM | SF-295 > 10 µM | NCI-H522 > 10 µM | NCI/ADR-RES > 10 µM | RXF 393 > 10 µM | LOX IMVI > 10 µM | SF-539 > 10 µM | HOP-92 > 10 µM | OVCAR-4 > 10 µM | SNB-19 > 10 µM | A549 > 10 µM | M14 > 10 µM | SNB-75 > 10 µM

COC(=O)c1c2c(cc3c1CC1(Cc4ccc(C(C)=O)cc4C1)C3)CCC2 (configuration not stated)
inactive: Malme-3M 15.7 µM | UACC-257 25.2 µM | KM12 17.6 µM | 786-0 51.8 µM | SR 20.7 µM | HL-60 17.1 µM | SF-295 40.5 µM | NCI-H522 21 µM | NCI/ADR-RES 21.3 µM | RXF 393 20.2 µM | LOX IMVI 21.1 µM | OVCAR-3 > 100 µM | SF-539 85.3 µM | HOP-92 93.3 µM | OVCAR-4 41.4 µM | A549 33.1 µM | SNB-75 30.4 µM

COc1cc(S(=O)(=O)Nc2ccc(-c3csc(/N=C\c4ccccc4O)n3)cc2)ccc1Cl
inactive: Malme-3M 39.3 µM | KM12 38.1 µM | 786-0 > 100 µM | SR 31.6 µM | HL-60 24.4 µM | SF-295 31.5 µM | NCI-H522 37.8 µM | NCI/ADR-RES > 100 µM | RXF 393 35.6 µM | LOX IMVI 35.5 µM | OVCAR-3 28.5 µM | SF-539 55.7 µM | HOP-92 > 100 µM | OVCAR-4 44.9 µM | SNB-19 39.3 µM | A549 63.1 µM | M14 59 µM | SNB-75 55.2 µM

CC(=O)Oc1c(C)c2c(O)c3c1C1=C(OCOC1=C(C)C3=O)/C(C)=C/C(C)(O)C(O)C(C)C(O)C1C(=O)OC(C(C)C1O)C(C)(O)/C=C\C=C(C)C(=O)N2 (configuration not stated)
inactive: Malme-3M 41.9 µM | UACC-257 > 100 µM | KM12 34.8 µM | 786-0 53.7 µM | SR 43.3 µM | HL-60 3.25 µM | SF-295 38.3 µM | NCI-H522 49.1 µM | NCI/ADR-RES 78.3 µM | RXF 393 18.5 µM | LOX IMVI 27.4 µM | OVCAR-3 43.3 µM | SF-539 10.4 µM | HOP-92 20.7 µM | SNB-19 66.8 µM | A549 76 µM | M14 34.4 µM | SNB-75 24 µM

CCOC(CN=C=S)OCC
inactive: Malme-3M > 10 µM | UACC-257 > 10 µM | KM12 > 10 µM | 786-0 > 10 µM | SR 2.52 µM | HL-60 3.83 µM | SF-295 > 10 µM | NCI-H522 > 10 µM | NCI/ADR-RES > 10 µM | RXF 393 > 10 µM | LOX IMVI > 10 µM | OVCAR-3 > 10 µM | SF-539 > 10 µM | HOP-92 7.67 µM | OVCAR-4 > 10 µM | SNB-19 > 10 µM | A549 > 10 µM | M14 > 10 µM | SNB-75 > 10 µM

COc1nc2nccnc2c(=O)n1C
inactive: Malme-3M > 10 µM | UACC-257 > 10 µM | KM12 > 10 µM | 786-0 > 10 µM | SR > 10 µM | HL-60 > 10 µM | SF-295 > 10 µM | NCI-H522 > 10 µM | NCI/ADR-RES > 10 µM | RXF 393 > 10 µM | LOX IMVI > 10 µM | OVCAR-3 > 10 µM | SF-539 > 10 µM | HOP-92 > 10 µM | OVCAR-4 > 10 µM | SNB-19 > 10 µM | A549 > 10 µM | M14 > 10 µM | SNB-75 > 10 µM

Cc1ccc2[nH]/c(=N/S(=O)(=O)c3cc(C)c(Cl)cc3S)[nH]c2c1
inactive: Malme-3M > 100 µM | UACC-257 > 100 µM | KM12 41.6 µM | 786-0 45.9 µM | SR 31.6 µM | HL-60 28.8 µM | SF-295 49.5 µM | NCI-H522 > 100 µM | NCI/ADR-RES > 100 µM | RXF 393 > 100 µM | LOX IMVI 25.4 µM | OVCAR-3 91.2 µM | SF-539 74.3 µM | HOP-92 > 100 µM | OVCAR-4 65 µM | SNB-19 36.3 µM | A549 44.2 µM | M14 97.7 µM | SNB-75 25.1 µM

CCN1C(=O)/C(=C\Nc2ccccc2)S/C1=N/Nc1ncc(CC(=O)Nc2ccccc2C)s1
inactive: Malme-3M > 100 µM | UACC-257 > 100 µM | KM12 74 µM | 786-0 > 100 µM | SR 38.2 µM | HL-60 42.6 µM | SF-295 64.7 µM | NCI-H522 63.8 µM | NCI/ADR-RES 45 µM | RXF 393 > 100 µM | LOX IMVI > 100 µM | OVCAR-3 43.7 µM | SF-539 > 100 µM | HOP-92 67.6 µM | OVCAR-4 > 100 µM | SNB-19 > 100 µM | A549 58.2 µM | M14 > 100 µM | SNB-75 28.4 µM
